# Test results reported in patent US20240174727A1, “LONG-ACTING NATRIURETIC PEPTIDES AND USES THEREOF” (Eli Lilly and Company, priority 2022, published 2024).
# Like-named read-outs stand apart in the source and are kept apart here. Numbered stars: 1 amine (or outer) side, 2 acyl side, 3 side chain; on linkers, the order of the positions; unused ones are H or OH. Bridge positions count the residues as written; N and C are the ends. Square brackets hold non-standard residues; d marks the D form. * marks the point of attachment. PEG24 = NCCOCCOCCOCCOCCOCCOCCOCCOCCOCCOCCOCCOCCOCCOCCOCCOCCOCCOCCOCCOCCOCCOCCOCCOCCC(=O)O; C20 diacid = O=C(O)CCCCCCCCCCCCCCCCCCC(=O)*; γGlu = O=C(O)[C@H](CCC(=O)[*:2])N[*:1]; 4Pal = N[C@@H](Cc1ccncc1)C(=O)O; Dap = NC[C@H](N)C(=O)O; CH2 = C([*:1])[*:2]; βAla = NCCC(=O)O
# Experiments:
# [1] = Pharmacokinetics in male Sprague Dawley rats; type: in vivo; conditions: rat, sc, mean, single subcutaneous administration of 200 nMol/kg, plasma; for half-life: read-out: t½ (converted)
# Protocol: The pharmacokinetics of the exemplary analogs are evaluated following a single subcutaneous administration of […] to male Sprague Dawley rats. Blood samples are collected over 120 hours, and resulting individual plasma concentrations are used to calculate pharmacokinetic parameters. Peptide plasma (K3 EDTA) concentrations are determined using a qualified LC/MS method that measured the intact mass of the ANP polypeptide. Each peptide and an analog as an internal standard are extracted from 100% specie specified plasma using methanol with 0.1% formic acid. A Thermo Q-Exactive, High Resolution Instrument, and a Thermo Easy Spray PepMap are combined for LC/MS detection.
# [2] = target: T1, human NPRA (Homo sapiens, UniProt P16066); assay: Human NPRA cGMP activity assay (HTRF) in HEK293 cells overexpressing NPRA; type: cell-based; conditions: assay buffer with 0.1% casein
# T1 construct: Full-Length cDNA Cloning and Generation of Cell Lines Overexpressing Natriuretic Peptide Receptors (NPRs); expressed in transfected cells; host or cells: Jump-in T-Rex HEK293 cells, pJTI R4 CMV-TO MCS pA vector, tetracycline induction
# T1 sequence (P16066 33-1061): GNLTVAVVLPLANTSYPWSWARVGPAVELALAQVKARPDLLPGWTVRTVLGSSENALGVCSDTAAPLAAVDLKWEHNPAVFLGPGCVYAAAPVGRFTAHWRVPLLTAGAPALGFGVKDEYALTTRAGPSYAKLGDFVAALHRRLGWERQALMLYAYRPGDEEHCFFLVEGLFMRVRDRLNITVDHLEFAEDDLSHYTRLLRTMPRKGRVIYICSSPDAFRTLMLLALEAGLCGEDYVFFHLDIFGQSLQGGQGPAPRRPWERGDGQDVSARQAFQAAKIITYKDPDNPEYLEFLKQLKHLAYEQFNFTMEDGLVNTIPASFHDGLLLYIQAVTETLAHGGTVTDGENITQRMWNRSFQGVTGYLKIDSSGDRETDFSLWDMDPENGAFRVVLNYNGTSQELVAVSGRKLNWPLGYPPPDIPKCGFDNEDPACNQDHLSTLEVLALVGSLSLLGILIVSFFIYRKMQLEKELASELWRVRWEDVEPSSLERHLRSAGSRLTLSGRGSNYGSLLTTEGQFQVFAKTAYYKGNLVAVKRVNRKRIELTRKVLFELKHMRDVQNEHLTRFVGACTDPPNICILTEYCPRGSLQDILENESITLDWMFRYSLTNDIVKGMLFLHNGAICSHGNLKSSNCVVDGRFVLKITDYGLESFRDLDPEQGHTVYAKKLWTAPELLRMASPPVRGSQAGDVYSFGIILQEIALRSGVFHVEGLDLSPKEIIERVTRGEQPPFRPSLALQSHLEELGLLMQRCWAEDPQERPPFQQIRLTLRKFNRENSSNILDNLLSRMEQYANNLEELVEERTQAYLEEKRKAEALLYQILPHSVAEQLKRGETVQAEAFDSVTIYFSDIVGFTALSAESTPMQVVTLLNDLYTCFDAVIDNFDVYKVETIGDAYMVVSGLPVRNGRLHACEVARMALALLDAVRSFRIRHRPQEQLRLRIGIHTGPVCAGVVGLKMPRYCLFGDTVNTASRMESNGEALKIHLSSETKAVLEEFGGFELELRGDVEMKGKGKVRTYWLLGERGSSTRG
# In short: (§1)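 cGMP measured by HTRF and scaled between buffer (minimum) and 100 nM amidated rat ANP (maximum). Polypeptides in 10-fold steps from 10 μM to 1 pM, 0.5% DMSO, 0.5 mM IBMX, 40 min at room temperature, on induced NPRA-overexpressing HEK293 cells.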
# [3] = target: T2, rat NPRA (Rattus norvegicus, UniProt P18910); assay: Rat NPRA cGMP activity assay (HTRF) in HEK293 cells overexpressing NPRA; type: cell-based
# T2 construct: Full-Length cDNA Cloning and Generation of Cell Lines Overexpressing Natriuretic Peptide Receptors (NPRs); expressed in transfected cells; host or cells: Jump-in T-Rex HEK293 cells, pJTI R4 CMV-TO MCS pA vector, tetracycline induction
# T2 sequence (P18910 29-1057): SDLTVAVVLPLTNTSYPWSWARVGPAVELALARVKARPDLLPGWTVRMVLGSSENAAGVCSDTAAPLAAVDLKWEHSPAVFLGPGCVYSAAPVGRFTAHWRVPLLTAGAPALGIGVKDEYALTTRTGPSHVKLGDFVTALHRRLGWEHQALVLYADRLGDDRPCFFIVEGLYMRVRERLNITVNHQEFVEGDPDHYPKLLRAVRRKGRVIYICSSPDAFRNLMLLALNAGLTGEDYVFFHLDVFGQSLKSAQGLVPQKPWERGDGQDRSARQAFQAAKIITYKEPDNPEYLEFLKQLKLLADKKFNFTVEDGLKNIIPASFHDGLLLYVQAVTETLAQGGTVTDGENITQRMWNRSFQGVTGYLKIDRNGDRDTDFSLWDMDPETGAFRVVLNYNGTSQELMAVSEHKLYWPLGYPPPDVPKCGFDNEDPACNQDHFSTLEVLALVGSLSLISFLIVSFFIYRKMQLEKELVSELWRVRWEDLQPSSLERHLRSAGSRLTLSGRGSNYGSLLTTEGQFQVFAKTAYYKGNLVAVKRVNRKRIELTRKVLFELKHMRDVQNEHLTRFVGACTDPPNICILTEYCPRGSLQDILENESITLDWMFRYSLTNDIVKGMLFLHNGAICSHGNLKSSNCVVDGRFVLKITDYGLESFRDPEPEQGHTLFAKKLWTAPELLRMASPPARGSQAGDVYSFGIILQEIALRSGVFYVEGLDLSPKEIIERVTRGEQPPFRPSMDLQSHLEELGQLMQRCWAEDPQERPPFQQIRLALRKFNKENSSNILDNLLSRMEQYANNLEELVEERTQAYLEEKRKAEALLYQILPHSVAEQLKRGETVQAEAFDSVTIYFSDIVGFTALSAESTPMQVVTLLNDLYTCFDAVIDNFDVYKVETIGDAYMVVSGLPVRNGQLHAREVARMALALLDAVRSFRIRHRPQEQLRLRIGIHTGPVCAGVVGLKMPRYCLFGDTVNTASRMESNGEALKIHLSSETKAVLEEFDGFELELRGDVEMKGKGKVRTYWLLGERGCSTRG
# In short: as §1
# [4] = read-out: cGMP Assay (EC50, pM) w/Casein hNPRA
Compound,CL/F [1],half-life [1],"EC50 [2, 4]",also measured
{C20 diacid-γGlu}-EKEKEKG[PEG24]EK[βAla]RSSCFGGKIDRIGHQSGLGCPSFRHGSPSSGAPPPS-NH2 (linker 15-31 via CH2) [Example 7],0.055 mL/min/kg,19 h,–,–
{C20 diacid-γGlu}-EKEKEKG[PEG24]S[4Pal]RRSSCFGGRIDRIGHQSGLGCPSFRHGGKSSGAPPPS-NH2 (linker 15-31 via CH2) [Example 75],0.182 mL/min/kg,17 h,–,–
CC[C@H](C)[C@@H]1NC(=O)[C@H](CCCNC(=N)N)NC(=O)[C@H](CC(=O)O)NC(=O)[C@H]([C@@H](C)CC)NC(=O)[C@H](CCCNC(=N)N)NC(=O)CNC(=O)CNC(=O)[C@H](Cc2ccccc2)NC(=O)[C@@H](NC(=O)[C@H](CO)NC(=O)[C@H](CO)NC(=O)[C@H](CCCNC(=N)N)NC(=O)CCNC(=O)[C@H](CCCCN)NC(=O)[C@H](CCC(=O)O)NC(=O)CNC(=O)[C@H](CCCCN)NC(=O)[C@H](CCC(=O)O)NC(=O)[C@H](CCCCN)NC(=O)[C@H](CCC(=O)O)NC(=O)[C@H](CCCCN)NC(=O)[C@H](CCC(=O)O)NC(=O)CC[C@H](NC(=O)CCCCCCCCCCCCCCCCC(=O)O)C(=O)O)CSCSC[C@@H](C(=O)N2CCC[C@H]2C(=O)N[C@@H](CO)C(=O)N[C@@H](Cc2ccccc2)C(=O)N[C@@H](CCCNC(=N)N)C(=O)N[C@@H](Cc2c[nH]cn2)C(=O)NCC(=O)NCC(=O)N[C@@H](CCCCN)C(=O)N[C@@H](CO)C(=O)N[C@@H](CO)C(=O)NCC(=O)N[C@@H](C)C(=O)N2CCC[C@H]2C(=O)N2CCC[C@H]2C(=O)N2CCC[C@H]2C(=O)N[C@@H](CO)C(N)=O)NC(=O)CNC(=O)[C@H](CC(C)C)NC(=O)CNC(=O)[C@H](CO)NC(=O)[C@H](Cc2ccc(O)cc2)NC(=O)[C@H](Cc2c[nH]cn2)NC(=O)CNC1=O [Example 76],0.118 mL/min/kg,–,–,half-life ([1]; in vivo): 30 h
CC[C@H](C)[C@@H]1NC(=O)[C@H](CCCNC(=N)N)NC(=O)[C@H](CC(=O)O)NC(=O)[C@H]([C@@H](C)CC)NC(=O)[C@H](CCCNC(=N)N)NC(=O)[C@H](CCCCN)NC(=O)CNC(=O)[C@H](Cc2ccccc2)NC(=O)[C@@H](NC(=O)[C@H](CO)NC(=O)[C@H](CO)NC(=O)[C@H](CCCNC(=N)N)NC(=O)[C@H](CCCNC(=N)N)NC(=O)[C@H](Cc2ccncc2)NC(=O)[C@H](CO)NC(=O)COCCOCCNC(=O)COCCOCCNC(=O)COCCOCCNC(=O)COCCOCCNC(=O)COCCOCCNC(=O)COCCOCCNC(=O)COCCOCCNC(=O)COCCOCCNC(=O)CNC(=O)[C@H](CCCCN)NC(=O)[C@H](CCC(=O)O)NC(=O)[C@H](CCCCN)NC(=O)[C@H](CCC(=O)O)NC(=O)[C@H](CCCCN)NC(=O)[C@H](CCC(=O)O)NC(=O)CC[C@H](NC(=O)CCCCCCCCCCCCCCCCCCC(=O)O)C(=O)O)CSCSC[C@@H](C(=O)N2CCC[C@H]2C(=O)N[C@@H](CO)C(=O)N[C@@H](Cc2ccccc2)C(=O)N[C@@H](CCCNC(=N)N)C(=O)N[C@@H](Cc2c[nH]cn2)C(=O)NCC(=O)NCC(=O)N[C@@H](CCCCN)C(=O)N[C@@H](CO)C(=O)N[C@@H](CO)C(=O)NCC(=O)N[C@@H](C)C(=O)N2CCC[C@H]2C(=O)N2CCC[C@H]2C(=O)N2CCC[C@H]2C(=O)N[C@@H](CO)C(N)=O)NC(=O)CNC(=O)[C@H](CC(C)C)NC(=O)CNC(=O)[C@H](CO)NC(=O)[C@H](CCC(N)=O)NC(=O)[C@H](Cc2c[nH]cn2)NC(=O)CNC1=O [Example 87],–,–,621 pM,"EC50 ([3]; assay buffer with 0.1% BSA, read-out: cGMP Assay (EC50, pM) w/BSA rNPRA): 463000 pM"
{C20 diacid-γGlu}-EKEKEKGEKPRSSCFGG[Dap]IDRIGHQSGLGCPSFRHGSPSSGAPPPS-NH2 (linker 14-30 via CH2) [Example 139],–,–,19700 pM,"EC50 ([3]; assay buffer with 0.1% casein, read-out: cGMP Assay (EC50, pM) w/Casein rNPRA): 200000 pM"
CC[C@H](C)[C@@H]1NC(=O)[C@H](CCCNC(=N)N)NC(=O)[C@H](CC(=O)O)NC(=O)[C@H]([C@@H](C)CC)NC(=O)[C@H](CCCNC(=N)N)NC(=O)[C@H](CCCCN)NC(=O)CNC(=O)[C@H](Cc2ccccc2)NC(=O)[C@@H](NC(=O)[C@H](CO)NC(=O)[C@H](CO)NC(=O)[C@H](CCCNC(=N)N)NC(=O)[C@H](CCCNC(=N)N)NC(=O)[C@H](Cc2ccncc2)NC(=O)[C@H](CO)NC(=O)COCCOCCNC(=O)COCCOCCNC(=O)COCCOCCNC(=O)COCCOCCNC(=O)COCCOCCNC(=O)COCCOCCNC(=O)CNC(=O)[C@H](CCCCN)NC(=O)[C@H](CCC(=O)O)NC(=O)[C@H](CCCCN)NC(=O)[C@H](CCC(=O)O)NC(=O)[C@H](CCCCN)NC(=O)[C@H](CCC(=O)O)NC(=O)CC[C@H](NC(=O)CCCCCCCCCCCCCCCCCCC(=O)O)C(=O)O)CSCSC[C@@H](C(=O)N2CCC[C@H]2C(=O)N[C@@H](CO)C(=O)N[C@@H](Cc2ccccc2)C(=O)N[C@@H](CCCNC(=N)N)C(=O)N[C@@H](Cc2c[nH]cn2)C(=O)NCC(=O)N[C@@H](CO)C(=O)N2CCC[C@H]2C(=O)N[C@@H](CO)C(=O)N[C@@H](CO)C(=O)NCC(=O)N[C@@H](C)C(=O)N2CCC[C@H]2C(=O)N2CCC[C@H]2C(=O)N2CCC[C@H]2C(=O)N[C@@H](CO)C(N)=O)NC(=O)CNC(=O)[C@H](CC(C)C)NC(=O)CNC(=O)[C@H](CO)NC(=O)[C@H](Cc2ccc(O)cc2)NC(=O)[C@H](Cc2c[nH]cn2)NC(=O)CNC1=O [Example 113],–,–,–,"EC50 ([2]; cGMP Assay (EC50, pM) w/Casein hNPRA): 621 pM; EC50 ([3]; cGMP Assay (EC50, pM) w/BSA rNPRA, assay buffer with 0.1% BSA): 149000 pM"
